In brackets after ≈: the same amount, converted by molar mass.
Key:
HIV = test: Antiviral assay: inhibition of the killing of HIV-infected T4 lymphocytes (CEM cell line), XTT formazan readout; type: cell-based; conditions: for therapeutic index (IC50 divided by EC50): in cell culture; for EC50: Human immunodeficiency virus 1, CCRF-CEM, read-out: EC50, Inhibition of the killing of HIV-infected T4-lymphocytes
Procedure: The procedure used in the test for agents active against (HIV) is designed to detect agents acting at any stage of the virus reproductive cycle. The assay basically involves the killing of T4 lymphocytes by HIV. Small amounts of HIV are added to cells, and at least two complete cycles of virus reproduction are necessary to obtain the required cell killing. Agents which interact with virions, cells, or virus gene-products to interfere with viral activities will protect cells from cytolysis. The system is automated in several features to accommodate large numbers of candidate agents, and is generally designed to detect anti-HIV activity. However, compounds which degenerate or are rapidly metabolized in the culture conditions may not show activity in this screen. Also, while every attempt has been made to reduce variability, precise values for EC₅₀, IC₅₀, and Therapeautic Index are not possible. All tests are compared with a positive (AZT-treated) control done at the same time under identical conditions.
• 1. T4 lymphocytes (CEM cell line) are exposed to HIV at a virus to cell ratio approximately 0.05, and plated along with noninfected control cells in 96-well microtiter plates. • 2. The candidate agent is dissolved in dimethyl sulfoxide (unless otherwise instructed), then diluted 1:200 in cell culture medium. Further dilutions (half-log₁₀) are prepared before adding to an equal volume of medium containing either infected or noninfected cells. • 3. Cultures are incubated at 37 °C in a 5% carbon dioxide atmosphere for 6 or 7 days. • 4. The tetrazolium salt, XTT, is added to all wells, and cultures are incubated to allow formazan color development by viable cells. • 5. Individual wells are analyzed spectrophotometrically to quantitate formazan production, and in addition are viewed microscopically for detection of viable cells and confirmation of protective activity. • 6. Drug-treated virus-infected cells are compared with drug-treated noninfected cells and with other appropriate controls (untreated infected and untreated noninfected cells, drug-containing wells without cells, etc.) on the same plate. • 7. Data are reviewed in comparison with other tests done at the same time, and a determination about activity is made.

Vero cells = test: Effect on the replication of Vero cells; type: cell-based; conditions: for inhibition at 100 µg/mL: Conc. 100 ug/ml
Procedure: A second experiment shown in Table II herebelow was conducted to show the effects of various compounds on replication of Vero cells. […] This is indicative of much lower toxicity than AZT, (Compound No. 1) which inhibit a much higher percentage of these cells at a given concentration. TABLE II [table]

Which “therapeutic index (IC50 divided by EC50)” value (HIV) does the source give for `Cc1cn([C@H]2C[C@H](N=[N+]=[N-])[C@@H](CO)O2)c(=O)[nH]c1=O` [AZT, 3′-azido-3′-deoxythymidine, reference compound] here?
Its value is “about 100”.

And the inhibition at 10 µg/mL (Vero cells; Chlorocebus sabaeus, Vero, Conc. 10 ug/ml)?
The inhibition at 10 µg/mL was 21%.

What about the inhibition at 100 µg/mL (Vero cells; Chlorocebus sabaeus, Vero) of the same compound?
The inhibition at 100 µg/mL was 86%.

`Cc1cn([C@H]2C=C(n3ccnn3)[C@@H](CO)O2)c(=O)[nH]c1=O` [Compound 2, 1-[2′,3′-Didehydro-2′,3′-dideoxy-3′-(1˝-1˝,2˝,3˝-triazolo)ribofuranosyl]thymine] was tested. Which EC50 (HIV) did it give?
Its EC50 is greater than 100 µg/mL.

How did the EC50 (HIV) turn out when `C#CC1=C[C@H](n2cc(C)c(=O)[nH]c2=O)O[C@@H]1CO` [Compound 3, 1-(2′,3′-Didehydro-2′,3′-dideoxy-3′-ethynylribofuranosyl)thymine] was run?
Its EC50 is greater than 100 µg/mL.

Which EC50 (HIV) does the source give for `Cc1cn([C@H]2C=C(C#N)[C@@H](CO)O2)c(=O)[nH]c1=O` [Compound 4, 1-(3′-Cyano-2˝,3˝-didehydro-2′,3′-dideoxyribofuranosyl)thymine] here?
Its EC50 is greater than 100 µg/mL.

For `Cc1nnc(S(=O)(=O)C2=C[C@H](n3cc(C)c(=O)[nH]c3=O)O[C@@H]2CO)s1` [Compound 5, 1-[2′,3′-Didehydro-2′,3′-dideoxy-3′-(2˝-sulfono-5˝-methyl-1˝,3˝,4˝-thiadiazolo)ribofuranosyl]thymine], which EC50 (HIV) is on record?
Its EC50 is 4.9 µg/mL (≈ 12.7 µM).

What about the “therapeutic index (IC50 divided by EC50)” value (HIV) of the same compound?
The value was roughly 170.

And the inhibition at 50 µg/mL (Vero cells; Chlorocebus sabaeus, Vero, Conc. 50 ug/ml)?
Its inhibition at 50 µg/mL is 0%.

What about the inhibition at 75 µg/mL (Vero cells; Chlorocebus sabaeus, Vero, Conc. 75 ug/ml) of the same compound?
The inhibition at 75 µg/mL was 10%.

And the inhibition at 100 µg/mL (Vero cells; Chlorocebus sabaeus, Vero)?
The inhibition at 100 µg/mL was 20%.

And the “inhibition of Vero cells, in words” value (Vero cells; fast growing Vero cells)?
The value was “little inhibition”.

Reference: patent EP0348170A2, “Antiviral pyrimidine derivatives” (Lee, Moses Nam Fong, priority 1988, dated 1989)
